Test results taken from patent US20230285516A1 (priority 2020, published 2023).

Columns and labels:
[1] = tested on: mice with CIA; test: Histopathological analysis of hind legs, collagen-induced arthritis (CIA) models; assay type: in vivo; conditions: H&E and PAS, intramuscular weekly for 6 weeks
Protocol: (§1) Early Arthritis Model. Fifty mice with the same characteristics were immunized at the base of the tail with 100 μg of chicken type II collagen emulsified in complete Freund's adjuvant. The boost was applied on day 21 at the base of the tail with 100 μg of type II collagen emulsified with Freund's incomplete adjuvant. On the same boosting day, the treatments (a-d) were applied every week for six weeks. Three animals were euthanized in the sixth week and three in the thirteenth week. The spleen, lymph nodes, joint tissue, liver, lungs, kidneys and heart were obtained in order to assess the inflammatory infiltrate, the predominant cell populations and the expression of pro- and anti-inflammatory cytokines.
(§2) Established Arthritis Model. Arthritis was induced as in the previous model in 50 mice and the treatments were applied intramuscularly, after 2 weeks of the boost, every week for 6 weeks. Three animals were euthanized in the eighth week and three in the fifteenth week. The spleen, lymph nodes, joint tissue, liver, lungs, kidneys and heart were obtained in order to assess the inflammatory infiltrate, the predominant cell populations and the expression of pro- and anti-inflammatory cytokines.
Histological evaluation. The inflammatory infiltrate and tissue architecture were evaluated by H&E and Masson's trichrome staining and the content of proteoglycans, with the PAS technique. […]

[2] = tested on: Treg (CD4+/FOXP3+) cells; test: FACS of spleen Foxp3+ regulatory T cells in CIA models; assay type: in vivo, mice; conditions: early and long-standing arthritis, first and second sacrifice, vs placebo
Protocol: as §1, §2
Cytometric evaluation. Using FACS, the percentage of populations of Th1 ([…]), Th2 (CD4^+/IL-4^+), Treg (CD4^+/FOXP3^+) Th17 (CD4^+/IL-17^+) and dendritic (CD4−/CD11c^+) cells in spleen cells.
FIG. 10. Effect of type I polymerized collagen in the early (preventive) and long-standing (late or palliative) arthritis model on the percentage of spleen CD4+ T cell subpopulations. (A) Spleen cells obtained ex vivo in the early arthritis model during the first sacrifice. (B) Spleen cells obtained ex vivo in the early arthritis model during the second sacrifice. (C) Spleen cells obtained ex vivo in the long-standing arthritis model during the first sacrifice. […] The intracellular production of IL-17A, IL-4, IFN-γ and Foxp3 by CD4+ T cells was detected by flow cytometry. The results are representative of 6 mice analyzed in each group. […]

## CN(Cc1cnc2nc(N)nc(N)c2n1)c1ccc(C(=O)N[C@@H](CCC(=O)O)C(=O)O)cc1 [MTX, methotrexate, reference compound]
[1]
  histopathology of joint tissue (inflammation, tissue architecture): induced some tissue abnormalities
[2]
  Foxp3+ regulatory T cells: significant reduction
